Experimental data as given in ChEMBL document CHEMBL5143590, “Dihydropyrimidinone imidazoles as unique structural antibacterial agents for drug-resistant gram-negative pathogens” (Eur J Med Chem, 2022).
Values after ≈ are worked out from the molar mass of the structure shown.

Legend:
Type in all cases: functional
Staphylococcus aureus [1] = experiment: Antibacterial activity against methicillin-resistant Staphylococcus aureus N315 assessed as inhibition of bacterial growth by two fold serial dilution method
Enterococcus faecalis = experiment: Antibacterial activity against Enterococcus faecalis assessed as inhibition of bacterial growth by two fold serial dilution method
Staphylococcus aureus [2] = experiment: Antibacterial activity against Staphylococcus aureus assessed as inhibition of bacterial growth by two fold serial dilution method
Staphylococcus aureus [3] = experiment: Antibacterial activity against Staphylococcus aureus 25923 assessed as inhibition of bacterial growth by two fold serial dilution method
Staphylococcus aureus [4] = experiment: Antibacterial activity against Staphylococcus aureus 29213 assessed as inhibition of bacterial growth by two fold serial dilution method
Klebsiella pneumoniae = experiment: Antibacterial activity against Klebsiella pneumoniae assessed as inhibition of bacterial growth by two fold serial dilution method
Escherichia coli [5] = experiment: Antibacterial activity against Escherichia coli assessed as inhibition of bacterial growth by two fold serial dilution method
Escherichia coli [6] = experiment: Antibacterial activity against Escherichia coli 25922 assessed as inhibition of bacterial growth by two fold serial dilution method
Pseudomonas aeruginosa [7] = experiment: Antibacterial activity against Pseudomonas aeruginosa assessed as inhibition of bacterial growth by two fold serial dilution method
Pseudomonas aeruginosa [8] = experiment: Antibacterial activity against Pseudomonas aeruginosa 27853 assessed as inhibition of bacterial growth by two fold serial dilution method
Acinetobacter baumannii = experiment: Antibacterial activity against Acinetobacter baumannii assessed as inhibition of bacterial growth by two fold serial dilution method

Compound | MIC (Staphylococcus aureus [1]) [µg/mL] | MIC (Enterococcus faecalis) [µg/mL] | MIC (Staphylococcus aureus [2]) [µg/mL] | MIC (Staphylococcus aureus [3]) [µg/mL] | MIC (Staphylococcus aureus [4]) [µg/mL] | MIC (Klebsiella pneumoniae) [µg/mL] | MIC (Escherichia coli [5]) [µg/mL] | MIC (Escherichia coli [6]) [µg/mL] | MIC (Pseudomonas aeruginosa [7]) [µg/mL] | MIC (Pseudomonas aeruginosa [8]) [µg/mL] | MIC (Acinetobacter baumannii) [µg/mL]
CCCCc1nc(Cl)c(C2NC(=O)NC(C)=C2C(=O)OCC)n1Cc1ccc(Cl)c(Cl)c1 (stereo not given) | 32 (≈ 64 µM) | 64 (≈ 128 µM) | 32 (≈ 64 µM) | 32 (≈ 64 µM) | 64 (≈ 128 µM) | 64 (≈ 128 µM) | 128 (≈ 256 µM) | 64 (≈ 128 µM) | 128 (≈ 256 µM) | 64 (≈ 128 µM) | 128 (≈ 256 µM)
CCCCc1nc(Cl)c(C2NC(=O)NC(C)=C2C(=O)OCC)n1S(=O)(=O)c1cccc(Cl)c1 (stereo not given) | 16 (≈ 31 µM) | 32 (≈ 62.1 µM) | 64 (≈ 124 µM) | 32 (≈ 62.1 µM) | 64 (≈ 124 µM) | 64 (≈ 124 µM) | 64 (≈ 124 µM) | 32 (≈ 62.1 µM) | 128 (≈ 248 µM) | 64 (≈ 124 µM) | 128 (≈ 248 µM)
CCCCc1nc(Cl)c(C2NC(=O)NC(CN(c3nccs3)S(=O)(=O)c3ccc(N)cc3)=C2C(=O)OCC)[nH]1 (stereo not given) | 128 (≈ 215 µM) | 256 (≈ 431 µM) | 256 (≈ 431 µM) | 256 (≈ 431 µM) | 256 (≈ 431 µM) | 256 (≈ 431 µM) | 256 (≈ 431 µM) | 256 (≈ 431 µM) | 256 (≈ 431 µM) | 256 (≈ 431 µM) | 256 (≈ 431 µM)
CCCCc1nc(Cl)c(C2NC(=O)NC(C)=C2C(=O)OCC)n1S(=O)(=O)c1ccccc1 (stereo not given) | 128 (≈ 266 µM) | 64 (≈ 133 µM) | 64 (≈ 133 µM) | 128 (≈ 266 µM) | 256 (≈ 532 µM) | 128 (≈ 266 µM) | 64 (≈ 133 µM) | 128 (≈ 266 µM) | 64 (≈ 133 µM) | 64 (≈ 133 µM) | 64 (≈ 133 µM)
CCCCc1nc(Cl)c(C2NC(=O)NC(C)=C2C(=O)OCC)n1CCF (stereo not given) | 128 (≈ 331 µM) | 64 (≈ 165 µM) | 32 (≈ 82.7 µM) | 64 (≈ 165 µM) | 64 (≈ 165 µM) | 128 (≈ 331 µM) | 32 (≈ 82.7 µM) | 128 (≈ 331 µM) | 64 (≈ 165 µM) | 64 (≈ 165 µM) | 64 (≈ 165 µM)
CCCCc1nc(Cl)c(C2NC(=O)NC(C)=C2C(=O)OCC)n1Cc1ccc(C)cc1 (stereo not given) | 128 (≈ 288 µM) | 64 (≈ 144 µM) | 64 (≈ 144 µM) | 64 (≈ 144 µM) | 64 (≈ 144 µM) | 128 (≈ 288 µM) | 32 (≈ 71.9 µM) | 32 (≈ 71.9 µM) | 128 (≈ 288 µM) | 64 (≈ 144 µM) | 64 (≈ 144 µM)
C#CCn1c(CCCC)nc(Cl)c1C1NC(=O)NC(C)=C1C(=O)OCC (stereo not given) | 64 (≈ 169 µM) | 64 (≈ 169 µM) | 64 (≈ 169 µM) | 128 (≈ 338 µM) | 64 (≈ 169 µM) | 32 (≈ 84.5 µM) | 128 (≈ 338 µM) | 64 (≈ 169 µM) | 64 (≈ 169 µM) | 128 (≈ 338 µM) | 64 (≈ 169 µM)
CCCCc1nc(Cl)c(C2NC(=O)NC(C)=C2C(=O)OCC)n1S(=O)(=O)c1cccc(Br)c1 (stereo not given) | 32 (≈ 57.2 µM) | 16 (≈ 28.6 µM) | 32 (≈ 57.2 µM) | 64 (≈ 114 µM) | 64 (≈ 114 µM) | 16 (≈ 28.6 µM) | 32 (≈ 57.2 µM) | 32 (≈ 57.2 µM) | 32 (≈ 57.2 µM) | 16 (≈ 28.6 µM) | 32 (≈ 57.2 µM)
CCCCc1nc(Cl)c(C2NC(=O)NC(C)=C2C(=O)OCC)n1S(=O)(=O)c1ccc(C(C)(C)C)cc1 (stereo not given) | 64 (≈ 119 µM) | 128 (≈ 238 µM) | 64 (≈ 119 µM) | 32 (≈ 59.6 µM) | 64 (≈ 119 µM) | 128 (≈ 238 µM) | 64 (≈ 119 µM) | 64 (≈ 119 µM) | 256 (≈ 477 µM) | 64 (≈ 119 µM) | 128 (≈ 238 µM)
NC1CCN(c2c(F)cc3c(=O)c(C(=O)O)cn(C4CC4)c3c2Cl)C1 (stereo not given) [CLINAFLOXACIN] | 1 (≈ 2.73 µM) | 0.5 (≈ 1.37 µM) | 0.5 (≈ 1.37 µM) | 0.5 (≈ 1.37 µM) | 0.5 (≈ 1.37 µM) | 1 (≈ 2.73 µM) | 0.5 (≈ 1.37 µM) | 1 (≈ 2.73 µM) | 1 (≈ 2.73 µM) | 1 (≈ 2.73 µM) | 2 (≈ 5.47 µM)
Cc1cc(NS(=O)(=O)c2ccc(N)cc2)no1 [SULFAMETHOXAZOLE] | 1 (≈ 3.95 µM) | 64 (≈ 253 µM) | 32 (≈ 126 µM) | 128 (≈ 505 µM) | 16 (≈ 63.2 µM) | 32 (≈ 126 µM) | 32 (≈ 126 µM) | 8 (≈ 31.6 µM) | 64 (≈ 253 µM) | 32 (≈ 126 µM) | 32 (≈ 126 µM)
CCCCc1nc(Cl)c(C2NC(=O)NC(C)=C2C(=O)OCC)n1Cc1ccccc1Cl (stereo not given) | 16 (≈ 34.4 µM) | 32 (≈ 68.8 µM) | 32 (≈ 68.8 µM) | 16 (≈ 34.4 µM) | 128 (≈ 275 µM) | 128 (≈ 275 µM) | 32 (≈ 68.8 µM) | 32 (≈ 68.8 µM) | 64 (≈ 138 µM) | 32 (≈ 68.8 µM) | 32 (≈ 68.8 µM)
CCCCc1nc(Cl)c(C2NC(=O)NC(CNS(=O)(=O)c3ccc(N)cc3)=C2C(=O)OCC)[nH]1 (stereo not given) | 256 (≈ 501 µM) | 256 (≈ 501 µM) | 128 (≈ 250 µM) | 256 (≈ 501 µM) | 256 (≈ 501 µM) | 256 (≈ 501 µM) | 256 (≈ 501 µM) | 256 (≈ 501 µM) | 256 (≈ 501 µM) | 256 (≈ 501 µM) | 128 (≈ 250 µM)
CCCCc1nc(Cl)c(C2NC(=O)NC(C)=C2C(=O)OCC)n1CC(=O)N1CCOCC1 (stereo not given) | 64 (≈ 137 µM) | 128 (≈ 274 µM) | 64 (≈ 137 µM) | 128 (≈ 274 µM) | 64 (≈ 137 µM) | 32 (≈ 68.4 µM) | 128 (≈ 274 µM) | 256 (≈ 547 µM) | 64 (≈ 137 µM) | 256 (≈ 547 µM) | 128 (≈ 274 µM)
CCCCc1nc(Cl)c(C2NC(=O)NC(C)=C2C(=O)OCC)n1S(=O)(=O)c1ccc(F)cc1 (stereo not given) | 16 (≈ 32.1 µM) | 64 (≈ 128 µM) | 64 (≈ 128 µM) | 64 (≈ 128 µM) | 32 (≈ 64.1 µM) | 128 (≈ 257 µM) | 32 (≈ 64.1 µM) | 32 (≈ 64.1 µM) | 32 (≈ 64.1 µM) | 64 (≈ 128 µM) | 64 (≈ 128 µM)
CCCCc1nc(Cl)c(C2NC(=O)NC(C)=C2C(=O)OCC)n1CCN1CCOCC1 (stereo not given) | 64 (≈ 141 µM) | 128 (≈ 282 µM) | 32 (≈ 70.5 µM) | 128 (≈ 282 µM) | 128 (≈ 282 µM) | 64 (≈ 141 µM) | 128 (≈ 282 µM) | 128 (≈ 282 µM) | 256 (≈ 564 µM) | 256 (≈ 564 µM) | 128 (≈ 282 µM)
CCCCc1nc(Cl)c(C2NC(=O)NC(C)=C2C(=O)OCC)n1Cc1ccc(F)cc1 (stereo not given) | 16 (≈ 35.6 µM) | 32 (≈ 71.3 µM) | 16 (≈ 35.6 µM) | 32 (≈ 71.3 µM) | 32 (≈ 71.3 µM) | 16 (≈ 35.6 µM) | 16 (≈ 35.6 µM) | 16 (≈ 35.6 µM) | 32 (≈ 71.3 µM) | 32 (≈ 71.3 µM) | 32 (≈ 71.3 µM)
CCCCc1nc(Cl)c(C2NC(=O)NC(C)=C2C(=O)OCC)n1CC (stereo not given) | 64 (≈ 174 µM) | 64 (≈ 174 µM) | 64 (≈ 174 µM) | 128 (≈ 347 µM) | 256 (≈ 694 µM) | 64 (≈ 174 µM) | 64 (≈ 174 µM) | 32 (≈ 86.8 µM) | 64 (≈ 174 µM) | 128 (≈ 347 µM) | 128 (≈ 347 µM)
CCCCc1nc(Cl)c(C2NC(=O)NC(C)=C2C(=O)OCC)n1C (stereo not given) | 64 (≈ 180 µM) | 128 (≈ 361 µM) | 32 (≈ 90.2 µM) | 256 (≈ 721 µM) | 64 (≈ 180 µM) | 128 (≈ 361 µM) | 128 (≈ 361 µM) | 64 (≈ 180 µM) | 64 (≈ 180 µM) | 256 (≈ 721 µM) | 64 (≈ 180 µM)
CCCCc1nc(Cl)c(C2NC(=O)NC(CN(c3nnc(C)s3)S(=O)(=O)c3ccc(N)cc3)=C2C(=O)OCC)[nH]1 (stereo not given) | 64 (≈ 105 µM) | 8 (≈ 13.1 µM) | 128 (≈ 210 µM) | 256 (≈ 420 µM) | 128 (≈ 210 µM) | 64 (≈ 105 µM) | 128 (≈ 210 µM) | 128 (≈ 210 µM) | 64 (≈ 105 µM) | 64 (≈ 105 µM) | 128 (≈ 210 µM)
